Data: patent US20230060425A1, “FUSED BICYCLIC HETEROCYCLE DERIVATIVES AS PESTICIDES” (Bayer Aktiengesellschaft, priority 2019, published 2023)
Where two headings read alike, the source gives them in different places.

How the values were obtained:
Format in all cases: in vivo
Spodoptera frugiperda [1] = assay: Spodoptera frugiperda spray test; conditions: foliar, 168 h, application rate 100 g/ha, maize leaf discs, after 7 days, read-out: efficacy
Experimental: Spodoptera frugiperda—Spray Test
(§1) Solvent: • 78.0 parts by weight of acetone • 1.5 parts by weight of dimethylformamide
(§2) Emulsifier: alkylaryl polyglycol ether
To produce further test concentrations, the formulation is diluted with emulsifier-containing water.
After 7 days, the efficacy in % is determined. 100% means that all the caterpillars have been killed; 0% means that no caterpillar has been killed.

Ctenocephalides felis [2] = assay: Ctenocephalides felis in vitro contact test with adult cat fleas; conditions: application rate 5 μg/cm^2 (=500 g/ha); after 48 h; fleas dead or moribund
Experimental: Ctenocephalides felis—In Vitro Contact Tests with Adult Cat Fleas
(§3) For the coating of the test tubes, 9 mg of active compound are first dissolved in 1 ml of acetone p.a. and then diluted to the desired concentration with acetone p.a. 250 μl of the solution are distributed homogeneously on the inner walls and the base of a 25 ml glass tube by turning and rocking on an orbital shaker (rocking rotation at 30 rpm for 2 h). With 900 ppm of active compound solution and internal surface area 44.7 cm^2, given homogeneous distribution, an area-based dose of 5 μg/cm^2 is achieved.
After the solvent has evaporated off, the tubes are populated with 5-10 adult cat fleas (Ctenocephalides felis), sealed with a perforated plastic lid and incubated in a horizontal position at room temperature and ambient humidity. After 48 h, efficacy is determined. To this end, the tubes are stood upright and the fleas are knocked to the base of the tube. Fleas which remain motionless at the base or move in an uncoordinated manner are considered to be dead or moribund.
100% efficacy means that all the fleas were dead or moribund. 0% efficacy means that no fleas were harmed.

Ctenocephalides felis [3] = assay: Ctenocephalides felis oral test; conditions: 48 h, application rate 100 ppm, in citrated cattle blood, after 2 days, read-out: efficacy (kill in %)
Experimental: Ctenocephalides felis—Oral Test
(§4) Solvent: Dimethyl sulfoxide
To produce a suitable active compound formulation, 10 mg of active compound are mixed with 0.5 ml of dimethyl sulfoxide. Dilution with citrated cattle blood gives the desired concentration.
About 20 unfed adult cat fleas (Ctenocephalides felis) are placed into a chamber which is closed at the top and bottom with gauze. A metal cylinder whose bottom end is closed with parafilm is placed onto the chamber. The cylinder contains the blood/active compound formulation, which can be imbibed by the fleas through the parafilm membrane.
After 2 days, the kill in % is determined. 100% means that all of the fleas have been killed; 0% means that none of the fleas have been killed.

Myzus persicae [4] = assay: Myzus persicae oral test; conditions: 120 h, application rate 4 ppm, after 5 days, read-out: efficacy
Experimental: Solvent: 100 parts by weight of acetone
To produce a suitable preparation of active compound, 1 part by weight of active compound is dissolved using the specified parts by weight of solvent and made up with water until the desired concentration is attained.
50 μl of the active compound preparation are transferred into microtitre plates and made up to a final volume of 200 μl with 150 μl of IPL41 insect medium (33%+15% sugar). Subsequently, the plates are sealed with parafilm, which a mixed population of green peach aphids (Myzus persicae) within a second microtitre plate is able to puncture and imbibe the solution through it.
(§5) After 5 days, the efficacy in % is determined. 100% means that all the aphids have been killed; 0% means that no aphids have been killed.

Lucilia cuprina = Lucilia cuprina test; conditions: application rate 100 ppm; L1 larvae; after 2 days
Experimental: as §4
To produce a suitable active compound formulation, 10 mg of active compound are mixed with 0.5 ml of dimethyl sulfoxide, and the concentrate is diluted with water to the desired concentration.
About 20 L1 larvae of the Australian sheep blowfly (Lucilia cuprina) are transferred into a test vessel containing minced horsemeat and the active compound formulation of the desired concentration.
After 2 days, the kill in % is determined. 100% means that all the larvae have been killed; 0% means that no larvae have been killed.

Myzus persicae [5] = assay: Myzus persicae spray test; conditions: foliar, 120 h, application rate 100 g/ha, Chinese cabbage leaf discs, after 5 days, read-out: efficacy
Experimental: Myzus persicae—Spray Test
Solvent: • 78 parts by weight of acetone • 1.5 parts by weight of dimethylformamide
as §2
(§6) To produce a suitable active compound preparation, 1 part by weight of active compound is dissolved using the stated parts by weight of solvent and made up with water containing an emulsifier concentration of 1000 ppm until the desired concentration is attained. To produce further test concentrations, the formulation is diluted with emulsifier-containing water.
Discs of Chinese cabbage leaves (Brassica pekinensis) infested by all stages of the green peach aphid (Myzus persicae) are sprayed with an active compound formulation of the desired concentration.
as §5

Plutella xylostella = Plutella xylostella test (PLUTMA S); conditions: 456 h, infection 19 dat, 6 dai, read-out: % Efficacy
Experimental: Plutella xylostella Test (PLUTMA S)
(§7) Solvent: 14 parts by weight of dimethylformamide
(§8) Emulsifier: 2 parts by weight of alkylaryl polyglycol ether
(§9) To produce a suitable active compound formulation, 1 part by weight of active compound is dissolved with the stated parts by weight of solvent and emulsifier and made up to the desired concentration with water. To produce further test concentrations, water is used for dilution. In the event that addition of ammonium salts or/and penetrants (rapeseed oil methyl ester) is required, these are each pipetted in at a concentration of 1000 ppm after the finished formulation solution has been diluted.
Cabbage plants (Brassica oleracea var. sabauda) are sprayed with an active compound formulation of the desired concentration and, after 19 days, populated with 10 caterpillars (L2 larvae) of the diamond back moth (Plutella xylostella).
(§10) The kill is determined 6 days after the infection. 100% means that all the caterpillars have been killed and 0% means that none of the caterpillars have been killed.

Spodoptera frugiperda [6] = assay: Spodoptera frugiperda test on maize plants (SPODFR S); conditions: 6 dai, read-out: % Efficacy
Experimental: Spodoptera frugiperda Test (SPODFR S)
as §7, §8, §9
Maize plants (Zea mays) are sprayed with an active compound formulation of the desired concentration and, in each case after 5, 12 and 19 days, populated with 5 caterpillars (L2) of the fall armyworm (Spodoptera frugiperda).
as §10

Myzus persicae [7] = assay: Myzus persicae spray test (MYZUPE), comparative; conditions: 120 h, 5 dat, read-out: % Efficacy; for Emax at 4 g/ha: 4 g of ai/ha; for Emax at 20 g/ha: 20 g of ai/ha
Experimental: Myzus persicae—Spray Test (MYZUPE)
as §1, §2, §6
Discs of Chinese cabbage leaves (Brassica pekinensis) infested by all stages of the green peach aphid (Myzus persicae) are sprayed with an active compound preparation of the desired concentration.
(§11) After the desired period of time, the efficacy in % is determined. 100% means that all the aphids have been killed; 0% means that no aphids have been killed.

Rhipicephalus sanguineus = Rhipicephalus sanguineus in vitro contact test with adult brown dog ticks; conditions: application rate 5 μg/cm^2; after 48 h; ticks dead or moribund
Experimental: Rhipicephalus sanguineus—In Vitro Contact Tests with Adult Brown Dog Ticks
as §3
After the solvent has evaporated off, the tubes are populated with 5-10 adult dog ticks (Rhipicephalus sanguineus), sealed with a perforated plastic lid and incubated in a horizontal position in the dark at room temperature and ambient humidity. After 48 h, efficacy is determined. To this end, the ticks are knocked to the base of the tube and incubated on a hotplate at 45-50° C. for not more than 5 min. Ticks which remain motionless on the base or move in such an uncoordinated manner that they are unable to deliberately avoid the heat by climbing upwards are considered to be dead or moribund.
An efficacy of 100% means that all the ticks were dead or moribund. 0% efficacy means that none of the ticks were harmed.

Aphis gossypii = Aphis gossypii spray test (APHIGO S); conditions: 144 h, 6 dat, read-out: % Efficacy
Experimental: Aphis gossypii—Spray Test (APHIGO S)
as §7, §2
as §6, with “water. If the addition of ammonium salts or/and penetrants is required, these are each added in a concentration of 1000 ppm to the formulation solution.” for “water.”
Cotton plants (Gossypium hirsutum) heavily infested by the cotton aphid (Aphis gossypii) are sprayed with an active compound formulation of the desired concentration.
After the desired time, the kill in % is determined. 100% means that all the aphids have been killed; 0% means that no aphids have been killed.

Phaedon cochleariae [8] = assay: Phaedon cochleariae spray test; conditions: foliar, 168 h, application rate 100 g/ha, Chinese cabbage leaf discs, after 7 days, read-out: efficacy
Experimental: Phaedon cochleariae—Spray Test
as §1, §2, §6
Discs of Chinese cabbage leaves (Brassica pekinensis) are sprayed with an active compound formulation of the desired concentration and, after drying, populated with larvae of the mustard beetle (Phaedon cochleariae).
After 7 days, the efficacy in % is determined. 100% means that all the beetle larvae have been killed; 0% means that no beetle larvae have been killed.

Spodoptera frugiperda [9] = assay: Spodoptera frugiperda spray test (SPODFR), comparative; conditions: 168 h, 0.8 g of ai/ha, 7 dat, read-out: % Efficacy
Experimental: Spodoptera frugiperda—Spray Test (SPODFR)
as §1, §2, §6
Leaf discs of maize (Zea mays) are sprayed with an active compound formulation of the desired concentration and, after drying, populated with caterpillars of the armyworm (Spodoptera frugiperda).
After the desired period of time, the efficacy in % is determined. 100% means that all the caterpillars have been killed; 0% means that no caterpillar has been killed.

Heliothis armigera = Heliothis armigera test (HELIAR S); conditions: Helicoverpa armigera, 6 dai, read-out: % Efficacy
Experimental: Heliothis armigera Test (HELIAR S)
as §7, §8, §9
Cotton plants (Gossypium hirsutum) are sprayed with an active compound formulation of the desired concentration and, in each case after 12 and 19 days, populated with 5 caterpillars (L2) of the cotton bollworm (Heliothis armigera).
as §10

Myzus persicae [10] = assay: Myzus persicae drench test (MYZUPE D); conditions: soil, 240 h, 10 dat, read-out: % Efficacy
Experimental: Myzus persicae—Drench Test (MYZUPE D)
Solvent: 7 parts by weight of dimethylformamide
Emulsifier: 2 part by weight of alkylaryl polyglycol ether
To produce a suitable active compound preparation, 1 part by weight of active compound is mixed with the specified amounts of solvent and emulsifier, and the concentrate is diluted with water to the desired concentration, it being necessary to include the volume of soil which is drenched in the calculation. It should be ensured that a concentration of 40 ppm of emulsifier in the soil is not exceeded. To produce further test concentrations, water is used for dilution.
Savoy cabbage (Brassica oleracea) in pots with soil and infested by all stages of the green peach aphid (Myzus persicae) is watered with an active compound preparation of the desired concentration.
as §11

Phaedon cochleariae [11] = assay: Phaedon cochleariae test on cabbage plants (PHAECO S); conditions: 6 dai, read-out: % Efficacy
Experimental: Phaedon cochleariae Test (PHAECO S)
as §7, §8, §9
Cabbage plants (Brassica oleracea var. sabauda) are sprayed with an active compound formulation of the desired concentration and populated with 10 L2 larvae of the mustard beetle (Phaedon cochleariae).
After the desired time, the kill in % is determined. 100% means that all the larvae have been killed and 0% means that none of the larvae have been killed.

Myzus persicae [12] = assay: Myzus persicae spray test on bell pepper plants (MYZUPE S); conditions: 144 h, 6 dat, read-out: % Efficacy
Experimental: Myzus persicae—Spray Test (MYZUPE S)
as §7, §2
as §6, with “water. If the addition of ammonium salts or/and penetrants is required, these are each added in a concentration of 1000 ppm to the formulation solution.” for “water.”
Bell pepper plants (Capsicum annuum) severely infested with the green peach aphid (Myzus persicae) are treated by spraying with the active compound formulation in the desired concentration.
After the desired time, the kill in % is determined. 100% means that all the animals have been killed; 0% means that no animals have been killed.

| Structure (SMILES) | pest or weed control at 100 g/ha (Spodoptera frugiperda [1]) [%] | efficacy (Ctenocephalides felis [2]) [%] | pest or weed control at 4 ppm (Myzus persicae [4]) [%] | pest or weed control at 100 g/ha (Myzus persicae [5]) [%] | Emax at 0.16 ppm (Plutella xylostella) [%] | Emax at 0.16 ppm (Spodoptera frugiperda [6]; 120 h, infection 5 dat) [%] | Emax at 0.16 ppm (Spodoptera frugiperda [6]; 456 h, infection 19 dat) [%] | Emax at 0.8 ppm (Spodoptera frugiperda [6]; 456 h, infection 19 dat) [%] | Emax at 4 g/ha (Myzus persicae [7]) [%] | Emax at 20 g/ha (Myzus persicae [7]) [%] | Emax at 0.16 ppm (Spodoptera frugiperda [6]; 288 h, infection 12 dat) [%] | Emax at 0.8 ppm (Spodoptera frugiperda [6]; 288 h, infection 12 dat) [%] | Emax at 4 ppm (Aphis gossypii) [%] | Emax at 0.8 g/ha (Spodoptera frugiperda [9]) [%] | also measured |
| --- | --- | --- | --- | --- | --- | --- | --- | --- | --- | --- | --- | --- | --- | --- | --- |
| CCS(=O)(=O)c1ccc2c(S(=O)(=O)CC)c(-c3nc4cc(C(F)(F)F)cnc4n3C)ncc2c1 [Example I-034, 4,7-Bis(ethylsulfonyl)-3-[3-methyl-6-(trifluoromethyl)imidazo[4,5-b]pyridin-2-yl]isoquinoline] | 83 | 100 | 100 | 90 | – | – | – | – | – | – | – | – | – | – | pest or weed control at 100 ppm (Ctenocephalides felis [3]): 100%; efficacy (kill in %) (Lucilia cuprina): 100% |
| CCS(=O)(=O)c1c(-c2nc3cc(C(F)(F)F)cnc3n2C)ncc2cc(OCC(F)(F)F)ccc12 [Example I-036] | 100 | – | 100 | – | 80 | 90 | 70 | 100 | – | – | – | – | – | – | – |
| CCS(=O)(=O)c1c(-c2nc3cc(C(F)(F)F)cnc3n2C)ncc2c(C(F)(F)F)cccc12 [Example I-032] | 100 | 100 | 100 | 100 | – | 100 | – | – | 90 | 100 | 70 | 100 | 90 | 100 | efficacy (Rhipicephalus sanguineus): 100%; pest or weed control at 100 g/ha (Phaedon cochleariae [8]): 100% |
| CCS(=O)(=O)c1c(-c2nc3cc(C(F)(F)F)cnc3n2C)ncc2cc(C(F)(F)F)ccc12 [Example I-51, reference compound] | – | – | – | – | 50 | 20 | 30 | 60 | 0 | 0 | 10 | 80 | 20 | 67 | Emax at 0.16 ppm (Heliothis armigera; 288 h, infection 12 dat): 40%; Emax at 0.16 ppm (Heliothis armigera; 456 h, infection 19 dat): 20%; Emax at 4 ppm (Myzus persicae [10]): 0%; Emax at 0.16 ppm (Phaedon cochleariae [11]; 120 h, infection 5 dat): 10%; Emax at 0.16 ppm (Phaedon cochleariae [11]; 288 h, infection 12 dat): 0%; Emax at 0.8 ppm (Phaedon cochleariae [11]; 288 h, 0.8 ppm, infection 12 dat): 40%; Emax at 0.8 ppm (Myzus persicae [12]; 0.8 ppm): 0%; Emax at 4 ppm (Myzus persicae [12]; 4 ppm): 70% |
